# Patent US6747063B2, “Combination therapy for treatment of erectile dysfunction” (Cellegy Pharmaceuticals, Inc., priority 1996, dated 2004)
# Several values for one entry are separate records, joined by “and”; a condition that tells them apart may be missing. Equal entries are not always repeated. No end group written: not given here.
# Tests used:
# [1] = tested on: penile pain in patients using PGE1; details: cited from earlier work
# [2] = tested on: penile pain in patients with previously diagnosed ED; test: Patient-reported drug-related pain after intracavernous injection, patients with no prior PGE1; type: in vivo, human; details: Phase 2; IC PGE1 5 and 15 μg alone or with SNP 50 μg
# Protocol: Patients were fifted with the Rigiscan™ tumescence and rigidity recording device. The patients were injected with the intracavernous (IC) drug using up to 2 different doses (PGE1 alone or in combination with sodium nitroprusside (SNP50 μg)) and monitored in real-time for their erectile response. Patients were only given a second injection (higher dose PGE1) if the response to the first injection was less than 70% of maximum tumescence and rigidity. In addition, patients were asked to report any occurrence of pain specific to the injection, but not related to acute discomfort associated with the needle prick.
# [3] = tested on: penile erection in patients with previously diagnosed ED; test: Erectile response (Rigiscan tumescence and rigidity) after intracavernous injection, patients with no prior PGE1; type: in vivo, human; details: Phase 1 (n=9)
# [4] = tested on: penile erection in patients with prior use of PGE1; test: Erection in patients with clinical history of pain with prostaglandin therapy (case reports); type: in vivo, human; details: Case No. 2; 10 μg PGE1 at home
# Protocol: (§1) As detailed below, one of three different modes of administration of NO producing agents were used depending upon the patient. In particular, each of these individuals received a NO donor either through the use of a nitrospray such as Nitrolingual™ or a transdermal patch delivering a NO donor compound, and in three cases, a combination of PGE1 and 50 μg of SNP (in saline or phosphate buffered saline (PBS)).
# [5] = tested on: penile pain in patients with prior use of PGE1; test: Penile pain in patients with clinical history of pain with prostaglandin therapy (case reports); details: human, in vivo
# Protocol: as §1
# [6] = tested on: human cavernous artery and cavernosal smooth muscle; details: cited from earlier work; for interaction of relaxant effects of the two agents: human cavernous artery and cavernosal smooth muscle; for relaxation response: isolated cavernous artery and corpus cavernosum
# [7] = in vivo; cited from earlier work
compound,measurement,setting,value
"CCCCC[C@H](O)/C=C/[C@H]1[C@H](O)CC(=O)[C@@H]1CCCCCCC(=O)O [PGE1, prostaglandin E1]",patients reporting a pain response,[1]; repeated / prolonged use of PGE1,40 to 45% and 40-45%
same,individuals with a pain response / frequency of pain per injection,[1]; single use of PGE1,3 to 10%
same,men reporting penile pain,"[1]; transurethral administration, clinic testing",35.7%
same,patients who experienced drug-related pain,[2],None
same,patients with a poor response to both injections,"[3]; IC PGE1 5 μg at 1st visit, PGE1 5 μg+SNP 50 μg at 2nd visit",4 of 9
same,patients who experienced full tumescence,[3]; lowest dose of PGE1 alone (5 μg IC),2/9
same,erectile response,[4],poor response
same,duration of pain,[5],three to four hours
"[NH-]c1c[n+](N2CCOCC2)no1 [SIN-1, 3-morpholinosydnonimine molsidomine]",interaction of relaxant effects of the two agents,[6],non-synergistic independent relaxant effects
same,relaxation response,[6],capacity to induce complete relaxations
O=[N+]([O-])OCC(CO[N+](=O)[O-])O[N+](=O)[O-] [glyceryl trinitrate],concentration in plasma,[7],0.2 to 0.4 ng/mL
"vasoactive intestinal peptide (HSDAVFTDNYTRLRKQMAVKKYLNSILN; ends and bridges not checked; UniProt P01282 125-152, looked up) [VIP]",interaction of relaxant effects of the two agents,[6],non-synergistic independent relaxant effects
same,relaxation response,[6],not capable of causing concentration dependent relaxation responses
